Reference: PMC8321398, “The discovery of a novel series of compounds with single-dose efficacy against juvenile and adult Schistosoma species” (PLoS Neglected Tropical Diseases, 2021)

Assays:
[1] = In vivo efficacy, mouse model of juvenile (21-day old) S. mansoni infection; conditions: female, CD1, plasma, mouse, Juvenile infection, read-out: Plasma conc @24 h (efficacy experiment)
Procedure: (§1) Prior to in vivo efficacy experiments, a single animal was given a dose of drug (using the same formulation) that was twice as large as that planned for use in the efficacy experiments and was observed periodically for adverse clinical signs for 24h by trained veterinarians. Adverse clinical signs checked include postural defect, vocalization, oculo-nasal discharge, hypersalivation, change in activity, abnormal gait, respiration and pulse, piloerection, loss of pupillary reflex, eyelid reflex, chromodacryorrhea, reaction to handling, tremor, convulsions, prostration, diarrhoea, cachexia, emaciation. […] In vivo efficacy was assessed in female CD1 mice using methods based on those previously described. Mice were infected subcutaneously with 150 cercariae. Test compounds were suspended in 7% Tween-80 / 3% Ethanol / double distilled water and drug dispersal was facilitated by vortexing and using a sonicating water bath (Formulation “Aqueous”). Alternatively, drugs were first dissolved in DMSO, then diluted with corn oil to give a 1:19 DMSO:corn oil solution/suspension of test compound (Formulation “Corn oil”). Dosing was by oral gavage. Mice in the negative control groups were given the drug suspension vehicle only. Positive controls for treatment of adult, day 42 old, infections were treated with PZQ and those for juvenile, day 21 old, infections with artemether, which unlike PZQ is effective against the juvenile worm infections in mice. During and following treatment, mice were closely observed for any ill effects by staff experienced in animal handling. This involved individuals who were blinded to the treatment groups. Effects they were trained to look for included hunching, immobility, piloerection, subdued behaviour, diarrhoea and loss of body condition. None were seen. Worms were recovered by portal perfusion with citrate saline 8–14 days post treatment and counted. Differences between groups relative to the non-drug treated controls were assessed for statistical significance by Student’s unpaired t-test using GraphPad Prism Software. P values are presented as follows:- ns–P > 0.05 (not significant), * P ≤ 0.05, ** P ≤ 0.01, *** P ≤ 0.001, **** P ≤ 0.0001.
(§2) For pharmacokinetic analysis during the in vivo efficacy experiments individual animals were only sampled once. Samples were taken from one animal in each experimental group at each of 1, 4, 8 h and samples from two animals in each group were taken at 24 h.

[2] = system: S. japonicum adult; experiment: In vitro adult S. japonicum worm assay; format: cell-based; conditions: for EC50: Schistosoma japonicum, S. japonicum, 120 h incubation, read-out: Sj adult EC50; for Potency ratio Sj/Sm: adult EC50 S. japonicum / S. mansoni
Text: (§3) The Puerto Rican strain of S. mansoni was maintained in Biomphalaria glabrata and CD1 mice. Oncomelania hupensis (hupensis) infected with S. japonicum (Chinese strain) and Bulinus truncatus (truncatus) infected with Egyptian strain S. haematobium were obtained from BEI Resources, NIAID, NIH. Infection of mice for worm recovery was as previously described except that, whereas cercariae of S. mansoni and S. haematobium were obtained by shedding from infected snails under lights, cercariae of S. japonicum were obtained by gently crushing the snails. Furthermore, adult S. haematobium were recovered after 12 weeks following mouse infection.
(§4) In vitro efficacy was carried out as previously described. In brief, worms were recovered from infected mice by portal perfusion 3 weeks (for juveniles) or 6 weeks (for adults) post-infection using warm perfusion medium (Dulbecco’s Modified Eagle’s Medium [DMEM], 2mM L-glutamine, 100 Units/ml penicillin, 100μg/ml streptomycin, 20mM Hepes, 10 Units/ml heparin [Sigma, UK]). Worms were washed free of red blood cells using the perfusion medium, and finally suspended in complete medium (cDMEM: DMEM, 2mM L-glutamine, 100 Units/ml penicillin, 100μg/ml streptomycin, 10% FCS). The juvenile assays were carried out in 96-well plates, each well containing 6–8 worms in 200 μL cDMEM. The adult worm assay was in 24-well plates, each well containing 3 worm pairs in 1mL cDMEM. Both the juvenile and adult worm cultures were kept at 37° C, in an atmosphere of 5% CO2. Drug effects were determined on day 5 following drug treatment by assessing the viability of individual worms as described in [14].

[3] = system: S. haematobium adult; experiment: In vitro adult S. haematobium worm assay; format: cell-based; conditions: for EC50: Schistosoma haematobium, S. haematobium, 120 h incubation, read-out: Sh adult EC50; for Potency ratio Sh/Sm: adult EC50 S. haematobium / S. mansoni
Text: as §3, §4

[4] = system: panel of 50 human kinases; experiment: Kinase panel activity; format: biochemical; conditions: 1 μM
Procedure: Kinase panel activity: Activity of compounds at 1 μM was assessed against a panel of 50 kinase enzymes (MKK1, JNK1, p38a MAPK, RSK1, PDK1, PKBa, SGK1, S6K1, PKA, ROCK 2, PRK2, PKCa, PKD1, MSK1, CAMKKb, CAMK1, SmMLCK, CHK2, GSK3b, PLK1, Aurora B, LKB1, AMPK (hum), MARK3, CK1δ, CK2, DYRK1A, NEK6, TBK1, PIM1, SRPK1, EF2K, HIPK2, PAK4, MST2, MLK3, TAK1, IRAK4, RIPK2, TTK, Src, Lck, BTK, JAK3, SYK, EPH-A2, HER4, IGF-1R, TrkA, VEG-FR) carried out by the MRC Protein Phosphorylation and Ubiquitinylation Unit at the University of Dundee, Dundee, DD1 5EH, UK.

[5] = system: S. mansoni adult worms; experiment: In vivo efficacy, mouse model of adult (42-day old) S. mansoni infection
Procedure: as §1, §2

[6] = as above; conditions: female, CD1, mouse, plasma, po, mouse, Adult infection, read-out: Plasma conc @24 h (efficacy experiment)
Procedure: as §1, §2

[7] = biological target: T1, Nav1.5 (Homo sapiens, UniProt Q14524); experiment: Ion channel activity (Metrion), Nav1.5, QPatch; format: cell-based; conditions: dose-response up to 10 μM
T1 construct: Metrion biosciences
T1 sequence (Q14524 whole entry): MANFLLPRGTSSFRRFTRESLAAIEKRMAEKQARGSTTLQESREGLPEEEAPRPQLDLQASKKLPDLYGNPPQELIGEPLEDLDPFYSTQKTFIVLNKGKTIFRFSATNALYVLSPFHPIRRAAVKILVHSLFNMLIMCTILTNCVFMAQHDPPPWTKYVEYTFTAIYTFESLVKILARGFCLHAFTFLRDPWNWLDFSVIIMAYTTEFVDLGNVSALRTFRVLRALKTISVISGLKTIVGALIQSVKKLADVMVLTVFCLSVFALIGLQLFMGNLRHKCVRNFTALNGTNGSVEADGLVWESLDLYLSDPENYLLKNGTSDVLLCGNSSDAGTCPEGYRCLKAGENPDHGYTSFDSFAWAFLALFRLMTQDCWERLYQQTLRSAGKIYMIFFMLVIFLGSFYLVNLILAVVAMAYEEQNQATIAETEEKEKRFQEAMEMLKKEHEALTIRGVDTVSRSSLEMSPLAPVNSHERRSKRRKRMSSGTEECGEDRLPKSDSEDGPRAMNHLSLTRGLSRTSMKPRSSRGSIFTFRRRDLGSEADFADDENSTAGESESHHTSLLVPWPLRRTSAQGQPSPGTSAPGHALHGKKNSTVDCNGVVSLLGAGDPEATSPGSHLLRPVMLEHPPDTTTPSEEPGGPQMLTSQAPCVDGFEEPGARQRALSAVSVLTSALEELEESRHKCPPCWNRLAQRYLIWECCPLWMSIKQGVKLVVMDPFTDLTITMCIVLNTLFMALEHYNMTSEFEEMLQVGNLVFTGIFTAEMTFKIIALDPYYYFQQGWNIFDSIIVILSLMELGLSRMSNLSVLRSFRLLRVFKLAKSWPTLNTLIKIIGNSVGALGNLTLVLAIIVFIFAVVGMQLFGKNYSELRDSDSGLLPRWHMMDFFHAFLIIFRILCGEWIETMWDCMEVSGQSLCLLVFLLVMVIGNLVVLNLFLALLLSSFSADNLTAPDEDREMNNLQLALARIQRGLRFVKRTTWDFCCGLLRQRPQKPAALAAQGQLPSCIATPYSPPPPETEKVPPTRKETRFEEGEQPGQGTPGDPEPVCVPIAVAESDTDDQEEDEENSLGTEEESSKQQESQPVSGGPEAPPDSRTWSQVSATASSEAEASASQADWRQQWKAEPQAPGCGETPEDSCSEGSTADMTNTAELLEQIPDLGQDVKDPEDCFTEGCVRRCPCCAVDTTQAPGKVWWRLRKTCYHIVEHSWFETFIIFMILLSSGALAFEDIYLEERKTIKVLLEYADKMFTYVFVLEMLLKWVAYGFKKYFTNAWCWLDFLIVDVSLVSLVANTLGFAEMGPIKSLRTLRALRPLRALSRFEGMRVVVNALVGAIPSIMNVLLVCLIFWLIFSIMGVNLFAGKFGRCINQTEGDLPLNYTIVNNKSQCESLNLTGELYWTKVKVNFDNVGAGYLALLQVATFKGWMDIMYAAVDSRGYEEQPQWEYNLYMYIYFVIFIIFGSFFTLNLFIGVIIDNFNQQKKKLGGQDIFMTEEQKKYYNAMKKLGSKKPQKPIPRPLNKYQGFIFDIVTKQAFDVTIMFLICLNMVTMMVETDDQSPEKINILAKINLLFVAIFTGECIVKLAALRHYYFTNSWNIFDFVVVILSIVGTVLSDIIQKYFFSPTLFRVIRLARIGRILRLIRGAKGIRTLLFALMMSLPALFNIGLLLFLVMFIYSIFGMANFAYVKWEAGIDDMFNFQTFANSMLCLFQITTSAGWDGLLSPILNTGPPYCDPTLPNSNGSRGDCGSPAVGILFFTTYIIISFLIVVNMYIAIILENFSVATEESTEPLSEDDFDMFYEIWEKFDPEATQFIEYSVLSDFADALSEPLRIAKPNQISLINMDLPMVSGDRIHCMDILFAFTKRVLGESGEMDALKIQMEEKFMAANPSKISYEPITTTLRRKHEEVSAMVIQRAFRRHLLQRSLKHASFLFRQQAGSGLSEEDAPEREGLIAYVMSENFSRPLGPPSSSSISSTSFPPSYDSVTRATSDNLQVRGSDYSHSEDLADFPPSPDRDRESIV
Procedure: (§5) Ion channel activity. Activity of compounds against ion channels was assessed by Metrion biosciences, Cambridge, CB21 6AD, UK in dose-response experiments (n = 2) up to 10 μM compound concentration with standards & equipment as listed for each ion channel (hERG–verapamil—QPatch, Nav1.5 –amitryptiline—QPatch, Kv1.5 –transDSC—QPatch, Cav1.2 –nimodipine—Flex).

[8] = biological target: T2, hERG (Homo sapiens, UniProt Q12809); experiment: Ion channel activity (Metrion), hERG, QPatch; format: cell-based; conditions: dose-response up to 10 μM
T2 construct: Metrion biosciences
T2 sequence (Q12809 whole entry): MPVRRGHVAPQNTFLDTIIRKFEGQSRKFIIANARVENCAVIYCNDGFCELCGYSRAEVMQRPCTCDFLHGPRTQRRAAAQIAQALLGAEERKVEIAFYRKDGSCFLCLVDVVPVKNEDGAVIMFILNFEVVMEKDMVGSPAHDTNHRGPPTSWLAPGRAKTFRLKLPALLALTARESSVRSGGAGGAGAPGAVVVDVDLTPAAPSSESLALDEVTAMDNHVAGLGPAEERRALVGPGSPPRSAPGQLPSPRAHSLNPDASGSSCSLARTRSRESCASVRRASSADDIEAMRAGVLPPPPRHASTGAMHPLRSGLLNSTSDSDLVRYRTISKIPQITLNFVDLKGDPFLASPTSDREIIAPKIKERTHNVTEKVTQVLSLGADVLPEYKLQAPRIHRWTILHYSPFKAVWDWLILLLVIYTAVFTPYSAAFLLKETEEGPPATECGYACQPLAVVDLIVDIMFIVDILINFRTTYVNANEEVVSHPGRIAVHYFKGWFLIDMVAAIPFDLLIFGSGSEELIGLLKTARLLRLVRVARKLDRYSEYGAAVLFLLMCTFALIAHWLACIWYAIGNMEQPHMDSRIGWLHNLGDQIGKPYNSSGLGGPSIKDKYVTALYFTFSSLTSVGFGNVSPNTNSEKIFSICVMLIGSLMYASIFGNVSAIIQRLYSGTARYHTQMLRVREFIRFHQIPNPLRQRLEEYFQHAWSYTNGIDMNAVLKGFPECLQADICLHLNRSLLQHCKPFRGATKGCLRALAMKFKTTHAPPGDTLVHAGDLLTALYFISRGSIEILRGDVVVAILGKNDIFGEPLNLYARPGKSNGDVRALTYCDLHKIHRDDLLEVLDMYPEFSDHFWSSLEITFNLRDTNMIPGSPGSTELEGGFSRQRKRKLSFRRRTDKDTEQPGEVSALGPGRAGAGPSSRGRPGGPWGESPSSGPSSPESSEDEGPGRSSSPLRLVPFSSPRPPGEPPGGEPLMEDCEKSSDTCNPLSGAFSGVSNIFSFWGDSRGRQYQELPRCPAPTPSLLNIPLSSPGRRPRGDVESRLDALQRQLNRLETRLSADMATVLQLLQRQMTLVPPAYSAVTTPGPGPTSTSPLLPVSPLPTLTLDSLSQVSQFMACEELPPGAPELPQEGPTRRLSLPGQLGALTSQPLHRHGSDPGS
Procedure: as §5

[9] = Stability in plasma; format: in vitro ADME; conditions: 37°C for 3 h
[10] = biological target: T3, Kv1.5 (Homo sapiens, UniProt P22460); experiment: Ion channel activity (Metrion), Kv1.5, QPatch; format: cell-based; conditions: dose-response up to 10 μM
T3 construct: Metrion biosciences
T3 sequence (P22460 whole entry): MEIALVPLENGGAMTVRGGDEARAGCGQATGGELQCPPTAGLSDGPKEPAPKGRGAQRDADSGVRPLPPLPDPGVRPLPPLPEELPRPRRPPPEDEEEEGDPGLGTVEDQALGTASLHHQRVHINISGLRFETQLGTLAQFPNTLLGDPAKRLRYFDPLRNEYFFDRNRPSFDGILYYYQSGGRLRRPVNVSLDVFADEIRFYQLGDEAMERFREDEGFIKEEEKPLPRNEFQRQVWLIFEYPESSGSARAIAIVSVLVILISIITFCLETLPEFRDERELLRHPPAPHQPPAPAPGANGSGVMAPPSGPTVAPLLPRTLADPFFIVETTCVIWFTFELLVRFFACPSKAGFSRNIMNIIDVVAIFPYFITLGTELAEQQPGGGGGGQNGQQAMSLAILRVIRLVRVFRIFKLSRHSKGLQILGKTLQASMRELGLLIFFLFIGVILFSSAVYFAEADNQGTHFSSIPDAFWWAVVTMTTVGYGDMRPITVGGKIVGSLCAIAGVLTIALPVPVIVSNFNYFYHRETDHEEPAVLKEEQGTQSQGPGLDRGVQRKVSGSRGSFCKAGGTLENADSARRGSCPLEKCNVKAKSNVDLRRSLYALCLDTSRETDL
Procedure: as §5

[11] = Stability in phosphate buffer and simulated gastric fluid; format: physicochemical; conditions: for degradation in simulated gastric fluid: pH 1.2, 37°C for 3 h; for degradation in phosphate buffer: pH 8.0, 37°C for 3 h
[12] = biological target: T4, Cav1.2 (Homo sapiens, UniProt Q13936); experiment: Ion channel activity (Metrion), Cav1.2, Flex; format: cell-based; conditions: dose-response up to 10 μM
T4 construct: Metrion biosciences
Procedure: as §5

[13] = oral 12.5 mg/kg, formulation corn oil
[14] = oral 6.25x2 mg/kg (12 h apart), formulation corn oil

concentration at 24 h [1, 13] [ng/mL] | EC50 [2] [nM] | EC50 [3] [nM] | concentration at 24 h ([1]; oral 50 mg/kg, formulation Aq) [ng/mL] | inhibition, panel of 50 human kinases [4] [%] | degradation in plasma [9] | degradation in simulated gastric fluid [11] | degradation in phosphate buffer [11] | Structure (SMILES) | Potency ratio Sj/Sm [2] | Potency ratio Sh/Sm [3] | inhibition of Nav1.5 [7] | inhibition of hERG [8] | inhibition of Kv1.5 [10] | inhibition of Cav1.2 [12] | further results
879 | 95.2 | 9.3 | – | – | – | – | – | Fc1c(-c2c(C(F)(F)F)nc3cnc(-c4cccc(C(F)(F)C(F)(F)F)c4)cn23)ccc2[nH]ncc12 [LSHTM-3608] | 6.2 | 0.6 | – | – | – | – | –
– | 73.5 | 17.9 | 208 | ≤ 25 | – | – | – | CC(C)c1nc2cnc(-c3ccc(F)c(C(F)(F)F)c3)cn2c1-c1c(F)cc(O)cc1F [LSHTM-3520] | 1.6 | 0.4 | – | – | – | – | concentration at 24 h ([1]; oral 200 mg/kg, formulation Aq): 1980 ng/mL; reducing the S. mansoni worm count ([5]; mice infected for 42 days (adult worms), 200 mg/kg single oral dose): highly effective; Worms remaining ([5]; mouse, Adult infection, oral 200 mg/kg, formulation Aq): 1%; Plasma conc @24 h (efficacy experiment) ([5]; mouse, Adult infection, oral 200 mg/kg, formulation Aq, 200 mg/kg): 1,907 ng/mL; concentration at 24 h ([6]; 200 mg/kg, oral 200 mg/kg, formulation Aq): 2000 ng/mL
– | 46.9 | 3.7 | – | – | No degradation | No degradation | No degradation | CC(C)c1cc(-c2cn3c(-c4ccc5[nH]ncc5c4F)c(C4CC4)nc3cn2)ccc1F [LSHTM-3686] | 8.7 | 0.7 | Neither LSHTM-3645 nor LSHTM-3686 showed any inhibition | Neither LSHTM-3645 nor LSHTM-3686 showed any inhibition | Neither LSHTM-3645 nor LSHTM-3686 showed any inhibition | Neither LSHTM-3645 nor LSHTM-3686 showed any inhibition | concentration at 24 h [1, 14]: 37.2 ng/mL; Worms remaining ([5]; mouse, Adult infection, oral 6.25x2 mg/kg (12 h apart), formulation corn oil): 2.4%; concentration at 24 h [6, 14]: 241 ng/mL
984 | 129 | 6.5 | – | – | No degradation | No degradation | No degradation | Fc1ccc(-c2cn3c(-c4ccc5[nH]ncc5c4F)c(C(F)(F)F)nc3cn2)cc1C(F)(F)C(F)(F)F [LSHTM-3645] | 13.3 | 0.7 | Neither LSHTM-3645 nor LSHTM-3686 showed any inhibition | Neither LSHTM-3645 nor LSHTM-3686 showed any inhibition | Neither LSHTM-3645 nor LSHTM-3686 showed any inhibition | Neither LSHTM-3645 nor LSHTM-3686 showed any inhibition | concentration at 24 h ([1]; oral 6.25 mg/kg, formulation corn oil): 708 ng/mL; Worms remaining ([5]; mouse, Adult infection, oral 6.25 mg/kg, formulation corn oil): 1%; efficacy against adult worm infections ([5]; mouse, single oral dose (Fig 9B)): highly effective; concentration at 24 h ([6]; 6.25 mg/kg, oral 6.25 mg/kg, formulation corn oil): 1010 ng/mL
– | – | – | 505 | ≤ 25 | – | – | – | CC(C)c1nc2cnc(-c3ccc(F)c(C(F)(F)F)c3)cn2c1-c1ccc2[nH]ncc2c1F [LSHTM-3604] | – | – | – | – | – | – | concentration at 24 h ([1]; oral 25 mg/kg, formulation corn oil): 223 ng/mL
1320 | 389 | 23 | – | ≤ 25 | – | – | – | Fc1ccc(-c2cn3c(-c4ccc5[nH]ncc5c4F)c(C(F)(F)F)nc3cn2)cc1C(F)(F)F [LSHTM-3642, 3-(4-fluoro-1H-indazol-5-yl)-6-(4-fluoro-3-(trifluoromethyl)phenyl)-2-(trifluoromethyl)imidazo[1,2-a]pyrazine] | – | – | – | – | – | – | concentration at 24 h ([1]; oral 25 mg/kg, formulation Aq): 1700 ng/mL; in vivo EC50 against adult worms ([5]; mouse model, single oral dose (Fig 9A)): < 6.25 mg/kg; Worms remaining ([5]; mouse, Adult infection, oral 12.5 mg/kg, formulation Aq): 1%; concentration at 24 h ([6]; 12.5 mg/kg, oral 12.5 mg/kg, formulation Aq): 939 ng/mL
